The nature of this experiment: Antagonist activity at androgen receptor in human LNCAP cells assessed as inhibition of androgen-stimulated cell growth measured every 3 days.

A word on the IC50: it is the concentration that inhibits the measured activity by half. As for `CC(C)(O)c1cn(-c2ccc(Cl)c(C(F)(F)F)c2)nn1`, the IC50 is 49 µM.
The value for `CC(C)(O)c1cn(-c2ccc([N+](=O)[O-])c(C(F)(F)F)c2)nn1` was 45 µM.

(Values after BindingDB's records for doi:10.1016/j.bmc.2014.03.018 (Deakin University, 2014).)
